Measured values taken from paper PMC5433425 (PeerJ, 2017).
Read-outs that look alike come from different tables or passages of the source. Peptide text beside a SMILES is read from it. * marks the point of attachment. βNA = c1ccc2cc(N*)ccc2c1

Columns and labels:
E. coli AG100 = test: Checkerboard synergy assay (MIC of antibiotics/EtBr with efflux inhibitor); format: cell-based, Escherichia coli; conditions: Escherichia coli
Description: The assays were performed in triplicate and the MIC value was given as result of at least two concordant values.

E. coli AG100A = test: microbe, parasite or virus in culture; format: cell-based, Escherichia coli; conditions: for MIC: Escherichia coli, AG100A
E. coli AG100tet = test: EtBr efflux by real-time fluorometry; conditions: 80 µM

`NC(N)=NCCC[C@H](NC(=O)[C@@H](N)Cc1ccccc1)C(=O)Nc1ccc2ccccc2c1` [PAβN] (H-Phe-Arg-βNA) gave an MIC (E. coli AG100; AG100, AG100, inhibitor 40 μM, read-out: MIC of OXA in presence of the efflux inhibitor) of 64 µg/mL, an MIC (E. coli AG100; AG100, AG100, inhibitor 80 μM, read-out: MIC of OXA in presence of the efflux inhibitor) of 64 µg/mL and an MIC (E. coli AG100; AG100, AG100, inhibitor 160 μM, read-out: MIC of OXA in presence of the efflux inhibitor) of 64 µg/mL. The MIC (E. coli AG100; AG100, read-out: MIC of EtBr in presence of the efflux inhibitor, AG100, inhibitor 40 μM) was 100 µg/mL, the MIC (E. coli AG100; AG100, read-out: MIC of EtBr in presence of the efflux inhibitor, AG100, inhibitor 80 μM) was 100 µg/mL and the MIC (E. coli AG100; AG100, read-out: MIC of EtBr in presence of the efflux inhibitor, AG100, inhibitor 160 μM) was 100 µg/mL. The MIC (E. coli AG100; AG100, read-out: MIC of OFX in presence of the efflux inhibitor, AG100, inhibitor 40 μM) was 0.06 µg/mL, the MIC (E. coli AG100; AG100, read-out: MIC of OFX in presence of the efflux inhibitor, AG100, inhibitor 80 μM) was 0.06 µg/mL and the MIC (E. coli AG100; AG100, read-out: MIC of OFX in presence of the efflux inhibitor, AG100, inhibitor 160 μM) was 0.06 µg/mL. For the same compound, the MIC (E. coli AG100; AG100, read-out: MIC of TET in presence of the efflux inhibitor, AG100, inhibitor 40 μM) was 2 µg/mL, the MIC (E. coli AG100; AG100, read-out: MIC of TET in presence of the efflux inhibitor, AG100, inhibitor 80 μM) was 1 µg/mL and the MIC (E. coli AG100; AG100, read-out: MIC of TET in presence of the efflux inhibitor, AG100, inhibitor 160 μM) was 0.06 µg/mL. For the same compound, the “effect on OFX and EtBr MICs” value (E. coli AG100A; AG100A (pump-deficient strain)) was “no effect”, the “reduction in OXA MIC” value (E. coli AG100A; AG100A (pump-deficient strain)) was 4 fold and the “reduction in TET MIC” value (E. coli AG100A; AG100A (pump-deficient strain)) was 16 fold. The MIC (E. coli AG100A; read-out: MIC of EtBr in presence of the efflux inhibitor) was 3.12 µg/mL, the MIC (E. coli AG100A; read-out: MIC of OFX in presence of the efflux inhibitor) was 0.03 µg/mL and the MIC (E. coli AG100A; read-out: MIC of OXA in presence of the efflux inhibitor) was 0.25 µg/mL. For the same compound, the MIC (E. coli AG100A; read-out: MIC of TET in presence of the efflux inhibitor) was 0.03 µg/mL, the “Fluorescence raw data, Channel Cycling A.530/585hp” value (from here on “Fluorescence raw data”) (E. coli AG100tet; cycle 1, + glucose) was 2.731 and the “Fluorescence raw data” value (E. coli AG100tet; cycle 1, without glucose) was 3.207. The “Fluorescence raw data” value (E. coli AG100tet; cycle 2, + glucose) was 2.53, the “Fluorescence raw data” value (E. coli AG100tet; cycle 2, without glucose) was 3.035 and the “Fluorescence raw data” value (E. coli AG100tet; cycle 3, + glucose) was 2.342. The “Fluorescence raw data” value (E. coli AG100tet; cycle 3, without glucose) was 2.872, the “Fluorescence raw data” value (E. coli AG100tet; cycle 4, without glucose) was 2.787 and the “Fluorescence raw data” value (E. coli AG100tet; cycle 5, without glucose) was 2.697. For the same compound, the “Fluorescence raw data” value (E. coli AG100tet; cycle 6, without glucose) was 2.616, the “Fluorescence raw data” value (E. coli AG100tet; cycle 7, without glucose) was 2.625 and the “Fluorescence raw data” value (E. coli AG100tet; cycle 8, without glucose) was 2.608. For the same compound, the “Fluorescence raw data” value (E. coli AG100tet; cycle 9, + glucose) was 1.745, the “Fluorescence raw data” value (E. coli AG100tet; cycle 9, without glucose) was 2.567 and the “Fluorescence raw data” value (E. coli AG100tet; cycle 10, + glucose) was 1.7497. For the same compound, the “Fluorescence raw data” value (E. coli AG100tet; cycle 10, without glucose) was 2.517, the “Fluorescence raw data” value (E. coli AG100tet; cycle 11, + glucose) was 1.716 and the “Fluorescence raw data” value (E. coli AG100tet; cycle 11, without glucose) was 2.463. For the same compound, the “Fluorescence raw data” value (E. coli AG100tet; cycle 12, + glucose) was 1.744, the “Fluorescence raw data” value (E. coli AG100tet; cycle 12, without glucose) was 2.462 and the “Fluorescence raw data” value (E. coli AG100tet; cycle 13, + glucose) was 1.706. The “Fluorescence raw data” value (E. coli AG100tet; cycle 13, without glucose) was 2.458, the “Fluorescence raw data” value (E. coli AG100tet; cycle 14, + glucose) was 1.697 and the “Fluorescence raw data” value (E. coli AG100tet; cycle 14, without glucose) was 2.431. For the same compound, the “Fluorescence raw data” value (E. coli AG100tet; cycle 15, + glucose) was 1.701, the “Fluorescence raw data” value (E. coli AG100tet; cycle 15, without glucose) was 2.375 and the “Fluorescence raw data” value (E. coli AG100tet; cycle 16, + glucose) was 1.676. For the same compound, the “Fluorescence raw data” value (E. coli AG100tet; cycle 16, without glucose) was 2.373, the “Fluorescence raw data” value (E. coli AG100tet; cycle 17, + glucose) was 1.744 and the “Fluorescence raw data” value (E. coli AG100tet; cycle 17, without glucose) was 2.339. For the same compound, the “Fluorescence raw data” value (E. coli AG100tet; cycle 18, + glucose) was 1.635, the “Fluorescence raw data” value (E. coli AG100tet; cycle 18, without glucose) was 2.379 and the “Fluorescence raw data” value (E. coli AG100tet; cycle 19, + glucose) was 1.694. The “Fluorescence raw data” value (E. coli AG100tet; cycle 19, without glucose) was 2.342, the “Fluorescence raw data” value (E. coli AG100tet; cycle 20, + glucose) was 1.701 and the “Fluorescence raw data” value (E. coli AG100tet; cycle 20, without glucose) was 2.323. The “Fluorescence raw data” value (E. coli AG100tet; cycle 21, + glucose) was 1.621, the “Fluorescence raw data” value (E. coli AG100tet; cycle 21, without glucose) was 2.26 and the “Fluorescence raw data” value (E. coli AG100tet; cycle 22, + glucose) was 1.645. For the same compound, the “Fluorescence raw data” value (E. coli AG100tet; cycle 22, without glucose) was 2.252, the “Fluorescence raw data” value (E. coli AG100tet; cycle 23, + glucose) was 1.597 and the “Fluorescence raw data” value (E. coli AG100tet; cycle 23, without glucose) was 2.314. The “Fluorescence raw data” value (E. coli AG100tet; cycle 24, + glucose) was 1.6798, the “Fluorescence raw data” value (E. coli AG100tet; cycle 24, without glucose) was 2.2447 and the “Fluorescence raw data” value (E. coli AG100tet; cycle 25, + glucose) was 1.636. The “Fluorescence raw data” value (E. coli AG100tet; cycle 25, without glucose) was 2.272, the “Fluorescence raw data” value (E. coli AG100tet; cycle 26, + glucose) was 1.633 and the “Fluorescence raw data” value (E. coli AG100tet; cycle 26, without glucose) was 2.288. The “Fluorescence raw data” value (E. coli AG100tet; cycle 27, + glucose) was 1.617, the “Fluorescence raw data” value (E. coli AG100tet; cycle 27, without glucose) was 2.2961 and the “Fluorescence raw data” value (E. coli AG100tet; cycle 28, + glucose) was 1.668. For the same compound, the “Fluorescence raw data” value (E. coli AG100tet; cycle 28, without glucose) was 2.2127, the “Fluorescence raw data” value (E. coli AG100tet; cycle 29, + glucose) was 1.644 and the “Fluorescence raw data” value (E. coli AG100tet; cycle 29, without glucose) was 2.236. For the same compound, the “Fluorescence raw data” value (E. coli AG100tet; cycle 30, + glucose) was 1.668, the “Fluorescence raw data” value (E. coli AG100tet; cycle 30, without glucose) was 2.282 and the “Fluorescence raw data” value (E. coli AG100tet; cycle 31, + glucose) was 1.6751.
